Reference: patent publication US20080234368A9, “Therapeutic compositions and methods of use” (Trustees of Dartmouth College, priority 1998, published 2008)

Key:
COX-2 = assay: Western blot for COX-2 protein in stimulated primary macrophages; assay type: cell-based, mouse; settings: concentrations of 1 μM or less; IFN-γ 10 ng/ml, LPS 2 ng/ml, 12 h
Description: (§1) FIG. 14(A) illustrates Western blots; primary mouse macrophages; IFN-γ, 10 ng/ml; LPS, 2 ng/ml were added to cultures together with triterpenoids or dexamethasone (concentrations shown as […]); cells were harvested at 12 h. FIG. 14(B) illustrates Northern blots, RAW 264.7 macrophage-like cell line. IFN-γ, 10 ng/ml; LPS, 1 ng/ml; TNF-α, 10 ng/ml, were added to cultures together with CDDO or dexamethasone. RNA prepared after 12 h; GAPDH used as a loading control. FIG. 14(C) illustrates suppression of production of NO and PGEF in primary macrophages. For NO studies, cells were treated with IFN-γ, 10 ng/ml, together with CDDO (M), dexamethasone (O), TP-82 (□), or oleanolic acid (A). After 48 h, supernatants were analyzed for NO by the Griess reaction. For PGEF studies, cells were treated with IFN-γ, 5 ng/ml, and LPS, 5 ng/ml, together with the same set of inhibitors. After 48 h, PGE was measured in supernatants by immunoassay. Control values (no inhibition) for NO and PGE2 were 4.7 nmol/[…] and 2.2 ng/ml/2×10^5 cells, respectively. FIGS. (14D) and (14E) illustrate (human colon myofibroblasts) ^18Co cells grown in MEM/10% FBS; other methods are the same as reported above for macrophages. FIG. 14(D) illustrates Northern blots showing dose-response for suppression of COX-2 mRNA after induction with IL-1β (30 pg/ml). CDDO was added together with IL-1. […]

COX-2 mRNA = assay: Northern blot for COX-2 mRNA in RAW 264.7 cells; assay type: cell-based, mouse; settings: CDDO 10^−6 M, RAW 264.7, 12 h
Description: as §1

[1] = system: NRP-152 non-malignant prostate epithelium cells; assay: Suppression of thymidine incorporation, dose-response (FIG. 13); assay type: cell-based, rat; settings: NRP-152, 72 h; oleanolic acid statement at concentrations of 1 μM or less
Description: Inhibitors of cell proliferation are known to be useful chemopreventive and chemotherapeutic agents. CDDO was tested against a wide variety of cells derived from highly aggressive leukemias and carcinomas, as well as from non-neoplastic tissues. NRP-152 cells were grown as described in Danielpour et al., 1994. MCF-7 cells were grown in phenol red-free RPMI 1640/10% charcoal-stripped FBS with added 17-β-estradiol (10 μM). Triterpenoids were added at the time of plating, and 72 h later ^3H-thymidine (1 μCi/well) was added for the final 2 h of incubation. Incorporation of thymidine was measured after cells were precipitated with TCA (10%), washed, and solubilized. The symbols used in FIG. 13 are CDDO, ▪; TP-82, ◯; and oleanolic acid; ●.

[2] = system: U937 monocytic leukemia cells; assay: Inhibition of cell proliferation (3H-thymidine incorporation); assay type: cell-based, human; settings: 3 or 4 days, 3H-thymidine 12 h
Description: (§2) All cells were obtained from ATCC, except as noted. They were grown under standard conditions in either DMEM, DMEM/F 12, or RPMI 1640 media plus 5-10% FBS. CDDO, over the dose range 10^−6 to 10^−10 M, was added to cultures at the time of seeding. Three or 4 days later, cells were treated with ^3H-thymidine for 2 h (12 h in the case of leukemia cells), and then incorporation was measured. “ER” means estrogen receptor.

[3] = system: 21-NT ER negative breast carcinoma cells; assay: as above; assay type: cell-based, human; settings: 3 or 4 days, 3H-thymidine 2 h
Description: as §2

[4] = system: NB4 promyelocytic leukemia cells; assay: as above; assay type: cell-based, human; settings: 3 or 4 days, 3H-thymidine 12 h
Description: as §2

[5] = system: KG-1 acute myeloid leukemia cells; assay: as above; assay type: cell-based, human; settings: 3 or 4 days, 3H-thymidine 12 h
Description: as §2

[6] = system: HL-60 myelocytic leukemia cells; assay: as above; assay type: cell-based, human; settings: 3 or 4 days, 3H-thymidine 12 h
Description: as §2

[7] = system: MCF-7 ER positive breast carcinoma cells; assay: as above; assay type: cell-based, human; settings: 3 or 4 days, 3H-thymidine 2 h
Description: as §2

[8] = system: 21-MT-2 ER negative breast carcinoma cells; assay: as above; assay type: cell-based, human; settings: 3 or 4 days, 3H-thymidine 2 h
Description: as §2

[9] = system: ML-1 myeloblastic leukemia cells; assay: as above; assay type: cell-based, human; settings: 3 or 4 days, 3H-thymidine 12 h
Description: as §2

[10] = system: NT2/D1 embryonal carcinoma cells; assay: as above; assay type: cell-based, human; settings: 3 or 4 days, 3H-thymidine 2 h
Description: as §2

[11] = system: THP-1 monocytic leukemia cells; assay: as above; assay type: cell-based, human; settings: 3 or 4 days, 3H-thymidine 12 h
Description: as §2

[12] = system: AML193 acute myelocytic leukemia cells; assay: as above; assay type: cell-based, human; settings: 3 or 4 days, 3H-thymidine 12 h
Description: as §2

[13] = system: MDA-MB-231 ER negative breast carcinoma cells; assay: as above; assay type: cell-based, human; settings: 3 or 4 days, 3H-thymidine 2 h
Description: as §2

[14] = system: 21-MT-1 ER negative breast carcinoma cells; assay: as above; assay type: cell-based, human; settings: 3 or 4 days, 3H-thymidine 2 h
Description: as §2

A2058 melanoma cells = assay: as above; assay type: cell-based, human; settings: 3 or 4 days, 3H-thymidine 2 h
Description: as §2

[15] = system: PGE2 production in 18Co cells; assay: PGE2 in culture medium of IL-1β-treated 18Co cells; assay type: cell-based, human; settings: IL-1β 30 pg/ml
Description: as §1

Compound: CC1(C)CC[C@]2(C(=O)O)CC[C@]3(C)[C@H](C(=O)C=C4[C@@]5(C)C=C(C#N)C(=O)C(C)(C)[C@@H]5CC[C@]43C)[C@@H]2C1 [Compound 6, 2-cyano-3,12-dioxoolean-1,9-dien-28-oic acid]
- expression of COX-2 protein (COX-2): blocked expression
- lowering of COX-2 mRNA expression (COX-2 mRNA): greater than 75%
- suppressing thymidine incorporation [1]: highly active in the nanomolar range
- IC50 [2]: 200 nM
- IC50 [3]: 1000 nM
- IC50 [4]: 40 nM
- IC50 [5]: 200 nM
- IC50 [6]: 100 nM
- IC50 [7]: 30 nM
- IC50 [8]: 300 nM
- IC50 [9]: 100 nM
- IC50 [10]: 100 nM
- IC50 [11]: 50 nM
- IC50 [12]: 400 nM
- IC50 [13]: 1000 nM
- IC50 [14]: 200 nM
- IC50 (A2058 melanoma cells): 200 nM
- PGE2 levels in the culture medium [15]: lowering of PGE2 levels
